Values after ≈ are worked out from the molar mass of the structure shown. Where only a bound is given, the exact number is not on record here.

The values that follow come from patent US5041423A, “Antibiotics of the mureidomycin group, their preparation, and their therapeutic use” (Sankyo Company, Limited, priority 1987, dated 1991).

A short description of data set [1]: Solubility (physico-chemical properties).
In data set [2] the test system is Escherichia coli NIHJ JC-2. Description: MIC by agar dilution method, Mueller-Hinton agar. The data set is classed as cell-based. Here is the method: (§1) The minimal inhibitory concentrations (MIC) of mureidomycins E and F against various Gram-positive and Gram-negative bacteria were determined by the agar dilution method, using a Mueller-Hinton agar medium (produced by Difco).
(In agar dilution, organisms are placed on agar that contains the substance at set levels.)

In data set [3] the test system is Proteus mirabilis SANK 70461. The data set is described as follows: MIC by agar dilution method, Mueller-Hinton agar. Type of data set: cell-based. Here is the method:
as §1

The test system of data set [4] is Pseudomonas aeruginosa ATCC 13388. Description: MIC by agar dilution method, Mueller-Hinton agar. The data set is classed as cell-based. The procedure: as §1
The subject of data set [5] is Pseudomonas aeruginosa NCTC 10490. Description: MIC by agar dilution method, Mueller-Hinton agar. Type of data set: cell-based. The procedure: as §1
Data set [6] deals with Pseudomonas aeruginosa NRRL B1000. Description: MIC by agar dilution method, Mueller-Hinton agar. The data set is classed as cell-based. The procedure:
as §1

The subject of data set [7] is Pseudomonas aeruginosa SANK 70579. Description: MIC by agar dilution method, Mueller-Hinton agar. The data set is classed as cell-based. Here is the method: as §1
The subject of data set [8] is Pseudomonas aeruginosa SANK 70970. The data set is described as follows: MIC by agar dilution method, Mueller-Hinton agar. The data set is classed as cell-based. Here is the method: as §1
Data set [9] relates to Pseudomonas aeruginosa SANK 75175. The data set is described as follows: MIC by agar dilution method, Mueller-Hinton agar. Type of data set: cell-based. Here is the method: as §1
Data set [10] has as its system Pseudomonas aeruginosa SANK 75775. The data set is described as follows: MIC by agar dilution method, Mueller-Hinton agar. Type of data set: cell-based. The procedure:
as §1

In data set [11] the test system is Serratia marcescens SANK 73060. The data set is described as follows: MIC by agar dilution method, Mueller-Hinton agar. Type of data set: cell-based. Here is the method:
as §1

The test system of data set [12] is Staphylococcus aureus FDA 209P JC-1. Description: MIC by agar dilution method, Mueller-Hinton agar. Type of data set: cell-based. The procedure:
as §1

Data set [13] in a line: Toxicity in mice after intravenous administration. The data set is classed as in vivo. As to conditions: intravenously 400 mg/kg.
Data set [14] has as its system Pseudomonas aeruginosa SANK 70579. The data set is described as follows: Growth inhibition test of derivatives. Type of data set: cell-based.

Take `CSCC[C@H](NC(=O)NC(Cc1cccc(O)c1)C(=O)O)C(=O)N[C@@H](C(=O)NC=C1CC(O)C(n2ccc(=O)[nH]c2=O)O1)C(C)N(C)C(=O)[C@@H](N)Cc1cccc(O)c1` (some centres unmarked) [Mureidomycin A, reference compound]: in data set [1], the Solubility in acetone entry was “slightly soluble”, the Solubility in benzene entry is given as “insoluble”, the Solubility in chloroform result is listed as “insoluble” and the “Solubility in ethyl acetate” value was “insoluble”. Moreover, in data set [1], the Solubility in methanol entry is listed as “Soluble” and the Solubility in water entry was “Soluble”.
The term MIC denotes the lowest concentration found to suppress growth. Low values mean greater potency, high ones weaker potency. Regarding `CSCC[C@@H](NC(=O)N[C@H](Cc1cccc(O)c1)C(=O)O)C(=O)N[C@H](C(=O)N/C=C1/C[C@H](O)[C@@H](n2ccc(=O)[nH]c2=O)O1)[C@H](C)N(C)C(=O)[C@H]1Cc2cccc(O)c2CN1` [Mureidomycin E], the MIC in data set [2] is over 200 µg/mL; in data set [3] it was over 200 µg/mL; in data set [4], 25 µg/mL (≈ 29.3 µM); in data set [5], under 0.4 µg/mL; in [6], 25 µg/mL (≈ 29.3 µM); in data set [7] it was under 0.4 µg/mL. In addition, the MIC in data set [8] is 25 µg/mL (≈ 29.3 µM); in data set [9] it was 25 µg/mL (≈ 29.3 µM); in data set [10], 6.25 µg/mL (≈ 7.33 µM); in [11] it was over 200 µg/mL; in data set [12] it was over 200 µg/mL. In data set [13], the toxicity entry is reported as “No toxicity was observed”. In data set [1], the Solubility in acetone entry is given as “slightly soluble”. Moreover, in [1], the Solubility in benzene entry was “insoluble”. The Solubility in chloroform entry in data set [1] is listed as “insoluble”. For the same compound, the “Solubility in ethyl acetate” value in [1] is reported as “insoluble”. The Solubility in methanol entry in data set [1] is reported as “Soluble”. Besides, the Solubility in water result in data set [1] is reported as “Soluble”.
Take `CSCC[C@@H](NC(=O)N[C@@H](Cc1cccc(O)c1)C(=O)O)C(=O)N[C@@H](C(=O)N/C=C1/C[C@@H](O)[C@H](n2ccc(=O)[nH]c2=O)O1)[C@@H](C)N(C)C(=O)[C@H]1Cc2cc(O)ccc2CN1` [Mureidomycin F]: the MIC was over 200 µg/mL in data set [2]; over 200 µg/mL in data set [3]; 3.13 µg/mL (≈ 3.67 µM) in data set [4]; 0.8 µg/mL (≈ 0.938 µM) in [5]; 3.13 µg/mL (≈ 3.67 µM) in data set [6]; 1.56 µg/mL (≈ 1.83 µM) in data set [7]. The minimal inhibitory concentration (MIC) in [8] was 100 µg/mL (≈ 117 µM); in data set [9] it was 50 µg/mL (≈ 58.6 µM); in [10], 25 µg/mL (≈ 29.3 µM); in [11], over 200 µg/mL; in data set [12] it was over 200 µg/mL. In data set [13], the toxicity result is given as “No toxicity was observed”. Also, the Solubility in acetone entry in [1] is given as “slightly soluble”. Besides, the Solubility in benzene entry in [1] is listed as “insoluble”. In addition, the Solubility in chloroform result in data set [1] is recorded as “insoluble”. Further, the “Solubility in ethyl acetate” value in data set [1] is recorded as “insoluble”. Further, the Solubility in methanol entry in data set [1] was “Soluble”. In data set [1], the Solubility in water entry is given as “Soluble”.
With methylmureidomycin E, the inhibition of growth entry in [14] was “inhibit the growth”. Besides, in [1], the Solubility in water entry is recorded as “soluble”.
On the same counts, the results for methylmureidomycin F are “inhibit the growth” and “soluble”.
In the same order, the values of phenylmureidomycin E are “inhibit the growth” and “soluble”.
On the same counts, the results for phenylmureidomycin F are “inhibit the growth” and “soluble”.
